# Tests used:
# [1] = molecular target: T1, Cholecystokinin receptor type A (Homo sapiens, UniProt P32238); experiment: Activity at CCK1R (unknown origin) expressed in CHO cells assessed as CCK EC50 measured as intracellular calcium responses at 1000 nM (Rvb = 7 to 14 pM)
# T1 sequence (P32238 whole entry): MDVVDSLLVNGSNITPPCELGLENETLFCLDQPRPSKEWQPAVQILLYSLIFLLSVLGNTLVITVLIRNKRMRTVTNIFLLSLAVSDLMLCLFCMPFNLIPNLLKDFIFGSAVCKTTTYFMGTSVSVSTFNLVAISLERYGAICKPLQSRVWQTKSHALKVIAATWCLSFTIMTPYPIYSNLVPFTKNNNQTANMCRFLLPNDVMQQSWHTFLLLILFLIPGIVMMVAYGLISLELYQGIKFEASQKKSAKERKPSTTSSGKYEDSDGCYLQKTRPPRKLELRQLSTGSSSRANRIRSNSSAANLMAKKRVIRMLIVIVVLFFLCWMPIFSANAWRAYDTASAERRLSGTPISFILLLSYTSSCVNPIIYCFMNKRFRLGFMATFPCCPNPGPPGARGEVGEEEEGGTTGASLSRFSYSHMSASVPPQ
# [2] = molecular target: T1, Cholecystokinin receptor type A; experiment: Activity at CCK1R (unknown origin) expressed in CHO cells assessed as CCK EC50 measured as intracellular calcium responses at 100 nM (Rvb = 7 to 14 pM)
# [3] = molecular target: T1, Cholecystokinin receptor type A
# [4] = molecular target: T1, Cholecystokinin receptor type A; remark: listed apart in the source
Structure (SMILES),EC50 [1],EC50 [2],IC50 [3],IC50 [4]
O=C(CN1C(=O)C(NC(=O)Nc2ccccc2)C(=O)N(c2ccccc2)c2ccccc21)Nc1ccccc1 (stereo unspecified),0.039 nM,0.014 nM,–,–
"COc1ccc(N(C)C(=O)CN2C(=O)C(NC(=O)Nc3ccccc3)C(=O)N(c3ccccc3)c3ccccc32)cc1 (stereo unspecified) [2-[2,4-Dioxo-5-phenyl-3-(3-phenyl-ureido)-2,3,4,5-tetrahydro-benzo[b][1,4]diazepin-1-yl]-N-(4-methoxy-phenyl)-N-methyl-acetamide]",0.120 nM,0.051 nM,14 nM,25 nM

# From BindingDB's records for doi:10.1016/j.bmcl.2015.03.051 (Mayo Clinic, 2015)
